Reference: patent US12590099B2, “Inhibitors of histone deacetylase useful for the treatment or prevention of HIV infection” (Merck Sharp & Dohme LLC, priority 2018, dated 2026)
Where two headings read alike, the source gives them in different places.

How the values were obtained:
KARN cells (Jurkat 2C4) = experiment: cells; type: cell-based; conditions: Homo sapiens, Jurkat
How it was run: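 Jurkat 2C4 (KARN) cells dosed with test compounds up to 40 μM final, 0.4% DMSO, overnight at 5% CO2; luciferase read by Steady-Glo luminescence after 10 min at room temperature. DMSO set as 0% and 2 μM SAHA as 100% induction; 4-parameter fit of percent activation.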

[1] = target: T1, Recombinant human HDAC3/SMRT heterodimer (Homo sapiens, UniProt O15379); experiment: Human HDAC enzyme inhibitor Fluor-de-Lys assay, HDAC3/SMRT; type: biochemical
T1 construct: FLAG (C); made in house

[2] = read-out: Karn EC50 (nM) 0.1% NHS, 0.1% normal human serum, luciferase induction, 100% = 2 μM SAHA
[3] = read-out: Karn EC50 (nM) 5% NHS, 5% normal human serum, luciferase induction, 100% = 2 μM SAHA
[4] = read-out: Karn EC50 (nM) 0.1% NHS, 0.1% normal human serum
[5] = read-out: Karn EC50 (nM) 5% NHS, 5% normal human serum
[6] = recombinant human HDAC3/SMRT, Fluor-de-Lys assay

T1 sequence (O15379 whole entry): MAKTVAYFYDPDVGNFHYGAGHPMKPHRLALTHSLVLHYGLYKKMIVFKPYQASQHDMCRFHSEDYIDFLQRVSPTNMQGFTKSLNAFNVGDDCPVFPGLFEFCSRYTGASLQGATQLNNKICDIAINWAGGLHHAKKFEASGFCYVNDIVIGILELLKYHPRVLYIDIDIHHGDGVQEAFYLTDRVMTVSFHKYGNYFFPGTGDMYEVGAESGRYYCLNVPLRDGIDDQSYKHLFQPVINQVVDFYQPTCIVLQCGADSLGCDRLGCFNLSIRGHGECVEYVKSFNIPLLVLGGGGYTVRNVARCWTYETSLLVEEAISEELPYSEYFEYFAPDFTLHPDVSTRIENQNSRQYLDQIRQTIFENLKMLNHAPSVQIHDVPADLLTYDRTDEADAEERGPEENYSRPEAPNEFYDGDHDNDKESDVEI
T1 sequence (Q9Y618 1-899 partner limits assumed): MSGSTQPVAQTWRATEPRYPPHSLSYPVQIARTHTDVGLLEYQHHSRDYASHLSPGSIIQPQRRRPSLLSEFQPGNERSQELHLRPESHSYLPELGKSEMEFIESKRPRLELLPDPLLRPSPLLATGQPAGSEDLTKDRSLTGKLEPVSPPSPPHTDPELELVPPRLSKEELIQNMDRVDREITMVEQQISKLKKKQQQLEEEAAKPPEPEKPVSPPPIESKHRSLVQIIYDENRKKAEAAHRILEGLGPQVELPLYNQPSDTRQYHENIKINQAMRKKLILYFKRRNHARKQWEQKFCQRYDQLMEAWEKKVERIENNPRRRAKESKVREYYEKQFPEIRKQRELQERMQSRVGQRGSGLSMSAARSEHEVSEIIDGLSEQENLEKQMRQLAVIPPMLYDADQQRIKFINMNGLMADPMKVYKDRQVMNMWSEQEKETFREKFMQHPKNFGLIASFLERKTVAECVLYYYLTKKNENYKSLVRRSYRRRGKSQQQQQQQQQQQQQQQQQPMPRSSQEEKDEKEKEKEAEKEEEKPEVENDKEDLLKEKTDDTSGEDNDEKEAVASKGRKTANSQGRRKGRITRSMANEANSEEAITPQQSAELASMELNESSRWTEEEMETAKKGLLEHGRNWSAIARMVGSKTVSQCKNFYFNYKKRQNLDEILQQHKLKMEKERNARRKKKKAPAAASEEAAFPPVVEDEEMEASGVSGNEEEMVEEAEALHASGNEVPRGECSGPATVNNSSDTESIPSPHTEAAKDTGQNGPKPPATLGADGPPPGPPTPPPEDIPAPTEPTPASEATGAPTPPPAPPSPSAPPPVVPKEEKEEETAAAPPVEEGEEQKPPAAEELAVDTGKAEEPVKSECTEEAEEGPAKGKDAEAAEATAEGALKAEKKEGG

Structure (SMILES) | EC50 (KARN cells (Jurkat 2C4); [2]) [nM] | EC50 (KARN cells (Jurkat 2C4); [3]) [nM] | IC50 [1] [nM] | EC50 (KARN cells (Jurkat 2C4); [4]) [nM] | EC50 (KARN cells (Jurkat 2C4); [5]) [nM] | IC50 [1, 6] [nM]
CCC(=O)CCCCC[C@H](NC(=O)C1CC12CCN(CC)CC2)c1nc(-c2ccc(F)cc2)[nH]c1-c1cnn(C)c1 (stereo partly shown) [Compound 248] | 183 | 429 |  |  |  | 
CCC(=O)CCCCC[C@H](NC(=O)[C@H]1CC12CCN(CC)CC2)c1ncc(-c2ccc(-c3nccs3)cc2)o1 [Compound 93] |  |  | 5.76 | 688 | 736 | 
CCC(=O)CCCCC[C@H](NC(=O)[C@H]1CC12CCN(C)CC2)c1ncc(-c2ccc(C(F)(F)F)cc2)[nH]1 [Compound 284] | 606 | 598 |  |  |  | 6.09
CCC(=O)CCCCC[C@H](NC(=O)[C@H]1CC12CCN(C)CC2)c1ncc(-c2cnc(OC)nc2)[nH]1 [Compound 255] | 13300 | 14800 |  |  |  | 81.9
CCC(=O)CCCCC[C@H](NC(=O)[C@H]1CC12CCN(C)CC2)c1ncc(-c2ccc(C(=O)NC3CCOC3)cc2)[nH]1 (stereo partly shown) [Compound 258] | 7440 | 7840 |  |  |  | 
CCC(=O)CCCCC[C@H](NC(=O)CC1CC2(C1)CN(C(C)=O)C2)c1ncc(-c2ccccc2)[nH]1 [Compound 300, (S)-2-(2-acetyl-2-azaspiro[3.3]heptan-6-yl)-N-(7-oxo-1-(5-phenyl-1H-imidazol-2-yl)nonyl)acetamide] | 9210 | 10200 |  |  |  | 38.7
CCC(=O)CCCCC[C@H](NC(=O)CC1CC2(C1)CN(C)C2)c1ncc(-c2cc3ccccc3nc2O)[nH]1 [Compound 326] | 2400 | 3820 |  |  |  | 1.58
CCC(=O)CCCCC[C@H](NC(=O)[C@H]1CC12CCN(CC1CC1)CC2)c1ncc(-c2cc3ccn(C)c(=O)c3cc2OC)o1 [Compound 229] | 31 | 29 |  |  |  | 0.21
CCC(=O)CCCCC[C@H](NC(=O)CC1CC2(C1)CN(C)C2)c1ncc(-c2cc3ccccc3nc2OC)[nH]1 [Compound 314] | 131 | 811 |  |  |  | 
CCC(=O)CCCCC[C@H](NC(=O)[C@H]1CC12CCN(C)CC2)c1ncc(-c2ccc(-n3nc(C)cc3C)cc2)[nH]1 [Compound 260] | 717 | 913 |  |  |  | 
CCC(=O)CCCCC[C@H](NC(=O)[C@H]1CC12CCN(C)CC2)c1ncc(-c2cn(C)c3ccccc23)[nH]1 [Compound 264] | 78 | 143 |  |  |  | 
CCC(=O)CCCCC[C@H](NC(=O)[C@H]1CC12CCN(C(C)C)CC2)c1ncc(-c2ccc3c(ccc(=O)n3C)c2)o1 [Compound 96] |  |  | 9.9 | 1370 | 1510 | 
CCC(=O)CCCCC[C@H](NC(=O)C1CC12CCN(CC)CC2)c1nc(-c2ccc(F)cc2)[nH]c1-c1cnc(OC)nc1 (stereo partly shown) [Compound 247] | 9640 | 10800 |  |  |  | 35.9
CCC(=O)CCCCC[C@H](NC(=O)[C@H]1CC12CCN(C)CC2)c1ncc(-c2cnc(-n3cc(C)cn3)nc2)[nH]1 [Compound 257] | 8080 | 10600 |  |  |  | 
CCC(=O)CCCCC[C@H](NC(=O)CC1CC2(C1)CN(C)C2)c1ncc(-c2ccccc2)[nH]1 [Compound 307] | 3700 | 2570 |  |  |  | 16.9
CCC(=O)CCCCC[C@H](NC(=O)[C@H]1CC12CCN(CC)CC2)c1ncc(-c2ccc3nn(C4CC4)cc3c2)[nH]1 [Compound 238] | 66 | 45 |  |  |  | 0.27
CCC(=O)CCCCC[C@H](NC(=O)[C@H]1CC12CCN(C)CC2)c1[nH]c(-c2ccc(F)cc2)nc1Cl [Compound 91] |  |  | 3.26 | 207 | 274 | 
CCC(=O)CCCCC[C@H](NC(=O)[C@H]1CC12CCN(C(C)C)CC2)c1ncc(-c2cc3ccccc3nc2OC)o1 [Compound 99] |  |  |  | 162 | 310 | 

Structure (SMILES) | EC50 (KARN cells (Jurkat 2C4); [2]) [nM] | EC50 (KARN cells (Jurkat 2C4); [3]) [nM] | IC50 [1] [nM] | EC50 (KARN cells (Jurkat 2C4); [4]) [nM] | EC50 (KARN cells (Jurkat 2C4); [5]) [nM] | IC50 [1, 6] [nM]
CCC(=O)CCCCC[C@H](NC(=O)C1=NOC2(CCN(CC3CC3)CC2)C1)c1ncc(-c2cc3ccc(C)nc3cc2F)[nH]1 [Compound 234] | 160 | 262 |  |  |  | 2.99
CCC(=O)CCCCC[C@H](NC(=O)[C@H]1CC12CCN(C)CC2)c1ncc(-c2ccc3ncoc3c2)[nH]1 [Compound 89] |  |  | 2.27 | 219 | 237 | 
CCC(=O)CCCCC[C@H](NC(=O)[C@H]1CC12CCN(CC)CC2)c1ncc(-c2ccc(-c3ncco3)cc2)o1 [Compound 94] |  |  | 4.01 | 502 | 549 | 
CCC(=O)CCCCC[C@H](NC(=O)CC1CC2(C1)CN(C(C)C)C2)c1ncc(-c2cc3ccccc3nc2OC)[nH]1 [Compound 273] | 111 | 438 |  |  |  | < 1.5
CCC(=O)CCCCC[C@H](NC(=O)C1NC(=O)CC12CN(C)C2)c1ncc(-c2cc3ccccc3nc2OC)[nH]1 (stereo partly shown) [Compound 317] | 591 | 1720 |  |  |  | 0.84
CCC(=O)CCCCC[C@H](NC(=O)CC1CC2(CNC2)C1)c1ncc(-c2ccccc2)[nH]1 [Compound 297] | 5840 | 15800 |  |  |  | 9.69
CCC(=O)CCCCC[C@H](NC(=O)C1CC12CC1CCC(C2)N1C)c1ncc(-c2ccc3ncccc3c2)[nH]1 (single isomer, unassigned) [Compound 242] | 1690 | 2770 |  |  |  | < 1.5
CCC(=O)CCCCC[C@H](NC(=O)[C@H]1CC12CCN(C)CC2)c1ncc(-c2ccc(F)cc2F)[nH]1 [Compound 289] | 1060 | 1090 |  |  |  | 21.7
CCC(=O)CCCCC[C@H](NC(=O)[C@H]1CC12CCN(C)CC2)c1ncc(-c2ccc(C)nc2OC)[nH]1 [Compound 268] | 205 | 330 |  |  |  | 
CCC(=O)CCCCC[C@H](NC(=O)[C@H]1CC12CN(C)C2)c1ncc(-c2cc3ccc(C)nc3cc2OC)o1 (single isomer, unassigned) [Compound 230] | 88 | 83 |  |  |  | 
CCC(=O)CCCCC[C@H](NC(=O)[C@H]1CC12CCN(C)CC2)c1ncc(-c2cnc3cccnc3c2)[nH]1 [Compound 259] | 7930 | 8180 |  |  |  | 
CCC(=O)CCCCC[C@H](NC(=O)[C@H]1CC12CCN(C)CC2)c1ncc(-c2ccc(-c3cccnc3)nc2)[nH]1 [Compound 262] | 773 | 851 |  |  |  | 
CCOc1ncc(-c2cnc([C@H](CCCCCC(=O)CC)NC(=O)[C@H]3CC34CCN(C)CC4)[nH]2)cn1 [Compound 266] | 9900 | 13800 |  |  |  | 
CCC(=O)CCCCC[C@H](NC(=O)[C@@H]1CC12CCN(C)CC2)c1nnc(-c2cc3ccccc3nc2OC)o1 [Compound 305] | 2200 | 3090 |  |  |  | 
CCC(=O)CCCCC[C@H](NC(=O)[C@H]1CC12CCN(C)CC2)c1ncc(-c2ccnc(N3CCOCC3)c2F)[nH]1 [Compound 261] | 1380 | 1500 |  |  |  | 
CCC(=O)CCCCC[C@H](NC(=O)[C@@H]1CC12CN(C)C2)c1ncc(-c2cc3ccc(C)nc3cc2OC)o1 (single isomer, unassigned) [Compound 231] | 589 | 535 |  |  |  | 
CCC(=O)CCCCC[C@H](NC(=O)C1CC12CCN(CC)CC2)c1nc(-c2ccc(F)cc2)[nH]c1-c1ccsc1 (stereo partly shown) [Compound 250] | 3730 | 4100 |  |  |  | 
CCC(=O)CCCCC[C@H](NC(=O)[C@H]1CC12CCN(C)CC2)c1nnc(-c2cc3ccccc3nc2OC)o1 [Compound 306] | 690 | 691 |  |  |  | 
